Experimental data taken from PubChem BioAssay (NCI).
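Each compound was tested at five concentrations against cells in 96-well plates for 48 hours. At the GI50, growth is halved. TGI denotes the concentration required for complete inhibition of growth.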

Assays:
Assay in all cases: DTP human tumour cell line panel, 48 h
A549 NSCLC = tested on: A549 NSCLC
SW-620 colon = tested on: SW-620 colon
MALME-3M melanoma = tested on: MALME-3M melanoma
SNB-75 CNS = tested on: SNB-75 CNS
DU-145 prostate = tested on: DU-145 prostate
RPMI-8226 leukemia = tested on: RPMI-8226 leukemia
PC-3 prostate = tested on: PC-3 prostate
SF-295 CNS = tested on: SF-295 CNS
HCC-2998 colon = tested on: HCC-2998 colon
M14 melanoma = tested on: M14 melanoma
U251 CNS = tested on: U251 CNS
HCT-15 colon = tested on: HCT-15 colon
OVCAR-5 ovarian = tested on: OVCAR-5 ovarian
SN12C renal = tested on: SN12C renal
SF-539 CNS = tested on: SF-539 CNS
HS 578T breast = tested on: HS 578T breast
UO-31 renal = tested on: UO-31 renal
CCRF-CEM leukemia = tested on: CCRF-CEM leukemia
HT29 colon = tested on: HT29 colon
EKVX NSCLC = tested on: EKVX NSCLC
MDA-MB-231 breast = tested on: MDA-MB-231 breast
A498 renal = tested on: A498 renal
KM12 colon = tested on: KM12 colon
UACC-62 melanoma = tested on: UACC-62 melanoma
SK-OV-3 ovarian = tested on: SK-OV-3 ovarian
COLO 205 colon = tested on: COLO 205 colon
NCI-H522 lung = tested on: NCI-H522 lung
SF-268 CNS = tested on: SF-268 CNS
LOX IMVI melanoma = tested on: LOX IMVI melanoma
SK-MEL-5 melanoma = tested on: SK-MEL-5 melanoma
BT-549 breast = tested on: BT-549 breast
K-562 leukemia = tested on: K-562 leukemia
HL-60(TB) leukemia = tested on: HL-60(TB) leukemia
RXF 393 renal = tested on: RXF 393 renal
TK-10 renal = tested on: TK-10 renal
NCI-H226 lung = tested on: NCI-H226 lung
NCI/ADR-RES ovarian = tested on: NCI/ADR-RES ovarian
MDA-MB-435 = tested on: MDA-MB-435
SR leukemia = tested on: SR leukemia
OVCAR-3 ovarian = tested on: OVCAR-3 ovarian
SK-MEL-28 melanoma = tested on: SK-MEL-28 melanoma
ACHN renal = tested on: ACHN renal
HCT-116 colon = tested on: HCT-116 colon
HOP-62 NSCLC = tested on: HOP-62 NSCLC
OVCAR-8 ovarian = tested on: OVCAR-8 ovarian
OVCAR-4 ovarian = tested on: OVCAR-4 ovarian
HOP-92 NSCLC = tested on: HOP-92 NSCLC
UACC-257 melanoma = tested on: UACC-257 melanoma
IGROV1 ovarian = tested on: IGROV1 ovarian
SNB-19 CNS = tested on: SNB-19 CNS
NCI-H23 lung = tested on: NCI-H23 lung
CAKI-1 renal = tested on: CAKI-1 renal
NCI-H460 lung = tested on: NCI-H460 lung
T-47D breast = tested on: T-47D breast
786-0 renal = tested on: 786-0 renal
MCF7 breast = tested on: MCF7 breast
MOLT-4 leukemia = tested on: MOLT-4 leukemia

COc1ccc2c(c1)C(=O)/C(=C/c1ccc(O)cc1)O2
GI50 (A549 NSCLC): 25.7 µM | TGI (A549 NSCLC): 67.5 µM | GI50 (SW-620 colon): 3.34 µM | TGI (SW-620 colon): 8.99 µM | GI50 (MALME-3M melanoma): 5.47 µM | TGI (MALME-3M melanoma): 13.2 µM | GI50 (SNB-75 CNS): 8.82 µM | TGI (SNB-75 CNS): > 32.3 µM | GI50 (DU-145 prostate): 9.45 µM | TGI (DU-145 prostate): 21.9 µM | GI50 (RPMI-8226 leukemia): 1.55 µM | TGI (RPMI-8226 leukemia): 3.49 µM | GI50 (PC-3 prostate): 9.48 µM | TGI (PC-3 prostate): 24.7 µM | GI50 (SF-295 CNS): 23.6 µM | TGI (SF-295 CNS): > 66.9 µM | GI50 (HCC-2998 colon): 17.3 µM | TGI (HCC-2998 colon): 33.6 µM | GI50 (M14 melanoma): 15.3 µM | TGI (M14 melanoma): 34 µM | GI50 (U251 CNS): 14.1 µM | TGI (U251 CNS): 27.2 µM | GI50 (HCT-15 colon): 4.2 µM | TGI (HCT-15 colon): 15.8 µM | GI50 (OVCAR-5 ovarian): 19.2 µM | TGI (OVCAR-5 ovarian): 38.5 µM | GI50 (SN12C renal): 14.1 µM | TGI (SN12C renal): 32 µM | GI50 (SF-539 CNS): 21.6 µM | TGI (SF-539 CNS): 56.8 µM | GI50 (HS 578T breast): 28.6 µM | TGI (HS 578T breast): > 86.3 µM | GI50 (UO-31 renal): 4.73 µM | TGI (UO-31 renal): 9.39 µM | GI50 (CCRF-CEM leukemia): 1.63 µM | TGI (CCRF-CEM leukemia): 3.54 µM | GI50 (HT29 colon): 4.14 µM | TGI (HT29 colon): 14.8 µM | GI50 (EKVX NSCLC): 18.6 µM | TGI (EKVX NSCLC): > 53.5 µM | GI50 (MDA-MB-231 breast): 14.2 µM | TGI (MDA-MB-231 breast): 28.8 µM | GI50 (A498 renal): 23.2 µM | TGI (A498 renal): 49.3 µM | GI50 (KM12 colon): 8.78 µM | TGI (KM12 colon): 22.8 µM | GI50 (UACC-62 melanoma): 14.7 µM | TGI (UACC-62 melanoma): 30.5 µM | GI50 (SK-OV-3 ovarian): 52.7 µM | TGI (SK-OV-3 ovarian): > 100 µM | GI50 (COLO 205 colon): 2.77 µM | TGI (COLO 205 colon): 8.97 µM | GI50 (NCI-H522 lung): 1.86 µM | TGI (NCI-H522 lung): 3.75 µM | GI50 (SF-268 CNS): 14.8 µM | TGI (SF-268 CNS): 41.1 µM | GI50 (LOX IMVI melanoma): 3.29 µM | TGI (LOX IMVI melanoma): 14 µM | GI50 (SK-MEL-5 melanoma): 15.4 µM | TGI (SK-MEL-5 melanoma): 30.5 µM | GI50 (BT-549 breast): 12.7 µM | TGI (BT-549 breast): 29.8 µM | GI50 (K-562 leukemia): 2.58 µM | TGI (K-562 leukemia): > 24.8 µM | GI50 (HL-60(TB) leukemia): 1.35 µM | TGI (HL-60(TB) leukemia): 2.95 µM | GI50 (RXF 393 renal): 11 µM | TGI (RXF 393 renal): 26 µM | GI50 (TK-10 renal): 15 µM | TGI (TK-10 renal): 31 µM | GI50 (NCI-H226 lung): 25.7 µM | TGI (NCI-H226 lung): 79 µM | GI50 (NCI/ADR-RES ovarian): 26.1 µM | TGI (NCI/ADR-RES ovarian): > 83.6 µM | GI50 (MDA-MB-435): 6.73 µM | TGI (MDA-MB-435): 20.5 µM | GI50 (SR leukemia): 1.79 µM | TGI (SR leukemia): 4.71 µM | GI50 (OVCAR-3 ovarian): 2.28 µM | TGI (OVCAR-3 ovarian): 5.29 µM | GI50 (SK-MEL-28 melanoma): 14.3 µM | TGI (SK-MEL-28 melanoma): 29.6 µM | GI50 (ACHN renal): 4 µM | TGI (ACHN renal): 10.9 µM | GI50 (HCT-116 colon): 4.42 µM | TGI (HCT-116 colon): 18.2 µM | GI50 (HOP-62 NSCLC): 55.2 µM | TGI (HOP-62 NSCLC): > 100 µM | GI50 (OVCAR-8 ovarian): 27.2 µM | TGI (OVCAR-8 ovarian): > 75 µM | GI50 (OVCAR-4 ovarian): 5.67 µM | TGI (OVCAR-4 ovarian): 12.7 µM | GI50 (HOP-92 NSCLC): 3.37 µM | TGI (HOP-92 NSCLC): 9.65 µM | GI50 (UACC-257 melanoma): 19.8 µM | TGI (UACC-257 melanoma): 35.2 µM | GI50 (IGROV1 ovarian): 6.87 µM | TGI (IGROV1 ovarian): 20.8 µM | GI50 (SNB-19 CNS): 43 µM | TGI (SNB-19 CNS): > 100 µM | GI50 (NCI-H23 lung): 13.9 µM | TGI (NCI-H23 lung): 34.4 µM | GI50 (CAKI-1 renal): 1.88 µM | TGI (CAKI-1 renal): 5.66 µM | GI50 (NCI-H460 lung): 20.3 µM | TGI (NCI-H460 lung): 50.3 µM | GI50 (T-47D breast): 7.27 µM | TGI (T-47D breast): 37.6 µM | GI50 (786-0 renal): 17.9 µM | TGI (786-0 renal): 41.4 µM | GI50 (MCF7 breast): 4.93 µM | TGI (MCF7 breast): 18.3 µM | GI50 (MOLT-4 leukemia): 2.38 µM | TGI (MOLT-4 leukemia): 6.06 µM
